Type in all cases: physicochemical
Series [1] can be described thus: solubility in water.
Series [2] can be described thus: solubility of the benzodiazepine in prior-art type carriers.
Series [3] is described as follows: maximum solubility of the benzodiazepine in carriers of the invention.

As for `Cc1cccc(NC(=O)NC2N=C(c3ccccc3)c3ccccc3N(C)C2=O)c1` (stereo not drawn) [(A), 3R(+)-N-(2,3-dihydro-1-methyl-2-oxo-5-phenyl-1H-1,4-benzodiazepin-3-yl)-N'-(3-methylphenyl)-urea], the solubility in series [1] is below 2 µg/mL; in series [2] (benzodiazepine substituted for cyclosporin in formulation type of GB 2015339 (Labrafil M1944CS and ethanol with corn oil or olive oil; or glycerol mono-oleate and ethanol)), around 20 mg/g; in series [2] (benzodiazepine substituted for dihydrocyclosporin in formulation type of BE 895 724 (ethanol, Imwitor 742, esterified corn oil)), around 60 mg/g. In addition, the “solubility (carrier a poor solvent)” value in series [2] (benzodiazepine substituted for cyclosporin in formulation type of GB 2 228 198 (Maisine and Cremophore RH40)) is listed as “less than 10 mg/g”. In addition, the “amount that can be dissolved” value in series [3] (Method 2 (room temperature method, 20°C, Silverson mixer), Labrafil M2125 CS, Tween 80, propylene glycol, purified water) is given as “up to 6 % (w/w)”. Also, the “maximum solubility for the benzodiazepine” value in series [3] (carrier Labrasol/Tween 80) was around 240 mg/g; in series [3] (carrier comprising Imwitor 742 and Tween 80), around 140 mg/g; in series [3] (corresponding Labrafil-containing carrier) it was 60 to 80 mg/g. In series [3] (mixture of carrier ingredients compared with the separate ingredients), the “solubility in the mixture of ingredients of the carrier” value was “more than in the separate ingredients”. In addition, the “percentage of the active ingredient that can be dissolved in the carrier” value in series [3] (without heating) is reported as “around 6%”.

(Values after EP0517412A1, “Pharmaceutical formulations of a benzodiazepine” (MERCK SHARP & DOHME LTD., priority 1991, dated 1992).)
